Usually Ki stands for the equilibrium dissociation constant of an inhibitor or competing ligand from its target. Read a high Ki as weaker binding.

Here are results for 3 molecules from ChEMBL document CHEMBL1151600, “6-Bromo-3-nitroflavone, a new high affinity benzodiazepine receptor agonist recognizes two populations of cerebral cortical binding sites” (Bioorg Med Chem Lett, 1997).

The source made the active and inactive calls. The calls are words filed in the database; no cut-off is given here.

Test [1] relates to Mus musculus. The test can be described thus: Anxiolytic activity in mice at 100 ug/kg. In kind it is functional.
Test [2] has as its target GABA-A receptor; anion channel. The test can be described thus: Inhibition of [3H]flunitrazepam [3H]FNZ) binding to GABA-A Benzodiazepine receptor of synaptosomal membranes from rat cerebral cortex. In kind it is tissue-based.
Test [3] has as its target GABA-A receptor; anion channel. The test can be described thus: Inhibition of [3H]flunitrazepam [3H]FNZ) binding to GABA-A Benzodiazepine receptor of synaptosomal membranes from rat cerebellum. The format is tissue-based.
Test [4] addresses GABA-A receptor; anion channel. The test can be described thus: Inhibition of [3H]flunitrazepam [3H]FNZ) binding to GABA-A Benzodiazepine receptor of synaptosomal membranes from rat hippocampus.
Test [5] addresses GABA-A receptor; anion channel. The test can be described thus: Inhibition of [3H]flunitrazepam [3H]FNZ) binding to GABA-A Benzodiazepine receptor of synaptosomal membranes from rat spinal cord. The format is tissue-based.
Test [6] concerns the target GABA-A receptor; anion channel. The test can be described thus: Inhibition of [3H]flunitrazepam [3H]FNZ) binding to GABA-A Benzodiazepine receptor of synaptosomal membranes from rat striatum.
The target in test [7] is GABA-A receptor; anion channel. The test can be described thus: Inhibition of [3H]zolpidem binding to GABA-A Benzodiazepine receptor of synaptosomal membranes from rat cerebellum. In kind it is tissue-based.
Test [8] addresses GABA-A receptor; anion channel. The test can be described thus: Inhibition of [3H]zolpidem binding to GABA-A Benzodiazepine receptor of synaptosomal membranes from rat cerebral cortex. The format is tissue-based.
Test [9] concerns the target GABA-A receptor; anion channel (Rattus norvegicus) (UniProt O09028+P15431+P18506+P18508+P19969+P20236+P23574+P23576+P28471+P28473+P30191+P62813+P63079+P63138+Q91ZM7+Q9ES14). The test can be described thus: Inhibition of [3H]flunitrazepam [3H]FNZ) binding to GABA-A benzodiazepine receptor of cortical membranes +/- 100 uM GABA (Partial agonist).
For test [10], the system named is Mus musculus. The test can be described thus: Anxiolytic activity in mice at 0.01 to 0.3 mg/kg intraperitoneal administration. In kind it is functional, organism-based.

With `CN1C(=O)CN=C(c2ccccc2)c2cc(Cl)ccc21` [DIAZEPAM], the Anxiolytic activity in test [1] stood at 35.
Take `O=c1cc(-c2ccc([N+](=O)[O-])cc2)oc2ccc(Br)cc12`: in test [2], affinity was put at a Ki of 220 nM.
Consider `O=c1cc(-c2cccc([N+](=O)[O-])c2)oc2ccc(Br)cc12`, for which the Ki was determined as 3.6 nM in test [3]; 1.2 nM in [2]; 9.6 nM in [4]; 12.7 nM in [5]; 9.8 nM in test [6]; 3 nM in test [7]. In addition, the affinity in [8] corresponds to a Ki of 3.8 nM. The GABA shift in test [9] stood at 1.38. For the same molecule, in test [10], the Anxiolytic affect entry is “Active”.
